Laboratory results reported in CN103301132A, “川芎嗪仲、叔醇类衍生物及其在制药中的应用” (Nanjing University of Chinese Medicine, priority 2013, dated 2013).
Where two headings read alike, the source gives them in different places.

What was measured:
[1] = Further study of other liguzinediol derivatives (activity, arrhythmia); details: no details given
[2] = Pharmacokinetics in Sprague-Dawley rats (plasma, HPLC); type: in vivo; details: SD rat; for AUC / half-life: gavage and tail vein dosing
[3] = cited from earlier work
[4] = biological target: T1, SERCA2a in cardiomyocytes [心肌细胞内的SERCA2a靶点] (Homo sapiens, UniProt P16615); details: mechanism study; cited from earlier work
T1 construct: 心肌细胞内的SERCA2a靶点; endogenous in cells

[5] = test system: isolated rat heart [Isolated Rat Heart]; details: pharmacological studies; cited from earlier work
[6] = 10 mg/kg, low dose (doses 10, 20, 40 mg·kg-1), route not given
[7] = 20 mg/kg, middle dose (doses 10, 20, 40 mg·kg-1), route not given
[8] = high dose (doses 10, 20, 40 mg·kg-1), route not given

T1 sequence (P16615 1-997 isoform P16615-2): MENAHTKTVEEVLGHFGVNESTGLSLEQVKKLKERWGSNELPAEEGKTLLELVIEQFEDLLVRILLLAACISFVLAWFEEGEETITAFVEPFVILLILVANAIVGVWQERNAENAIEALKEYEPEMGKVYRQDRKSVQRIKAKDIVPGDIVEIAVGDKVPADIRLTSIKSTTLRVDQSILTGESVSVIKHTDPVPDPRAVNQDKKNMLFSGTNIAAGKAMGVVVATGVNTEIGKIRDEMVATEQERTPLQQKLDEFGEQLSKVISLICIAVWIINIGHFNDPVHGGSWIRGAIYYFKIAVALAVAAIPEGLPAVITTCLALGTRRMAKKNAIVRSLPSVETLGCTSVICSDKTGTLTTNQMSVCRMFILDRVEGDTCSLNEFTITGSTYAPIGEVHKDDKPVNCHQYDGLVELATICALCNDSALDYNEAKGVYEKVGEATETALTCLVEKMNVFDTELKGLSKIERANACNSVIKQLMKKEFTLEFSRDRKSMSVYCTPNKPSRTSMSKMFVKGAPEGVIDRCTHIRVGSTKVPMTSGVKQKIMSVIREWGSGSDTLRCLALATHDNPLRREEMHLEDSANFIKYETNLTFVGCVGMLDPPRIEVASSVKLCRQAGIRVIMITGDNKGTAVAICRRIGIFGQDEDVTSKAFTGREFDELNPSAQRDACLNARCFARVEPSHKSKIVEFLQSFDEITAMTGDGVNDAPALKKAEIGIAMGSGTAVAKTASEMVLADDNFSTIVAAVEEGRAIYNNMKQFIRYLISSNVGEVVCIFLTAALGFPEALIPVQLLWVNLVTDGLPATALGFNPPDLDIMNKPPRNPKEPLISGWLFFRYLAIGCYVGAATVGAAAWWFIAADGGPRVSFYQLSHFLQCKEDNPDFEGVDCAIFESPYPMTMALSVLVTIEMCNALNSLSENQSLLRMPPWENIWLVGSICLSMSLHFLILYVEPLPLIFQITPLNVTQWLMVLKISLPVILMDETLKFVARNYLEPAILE

CCOCc1nc(C)c(COCC)nc1C [2,5-二乙氧甲基-3,6-二甲基吡嗪]
arrhythmia [1]: 会导致心律失常

Cc1nc(C(=O)O)c(C)nc1C(=O)O [3,6-二甲基-2,5-吡嗪二甲酸]
activity [1]: 明显下降

CCC(O)c1nc(C)c(C(O)CC)nc1C (stereo not drawn) [化合物2, 2,5-二-(1-羟基丙基)-3,6-二甲基吡嗪]
AUC [2, 6]: 34000 ng·h/mL | half-life [2, 6]: 3.7 h | AUC [2, 7]: 70000 ng·h/mL | half-life [2, 7]: 3.6 h | AUC [2, 8]: 135000 ng·h/mL | half-life [2, 8]: 3.5 h | clearance ([2]; low, middle and high doses, route not given): ~5 mL/min/kg | bioavailability ([2]; po, gavage and tail vein injection, 10, 20, 40 mg·kg-1): 90%

Cc1nc(CO)c(C)nc1CO [liguzinediol, 2,5-二羟甲基-3,6-二甲基吡嗪]
half-life ([3]; in animals): 1.6 h | metabolic rate ([3]; in animals): 相对较快 | glucuronide conjugate formation ([3]; in vivo): 很快地形成了葡萄糖醛酸结合物而排出体外 | oxidation of hydroxymethyl and side-chain methyl ([3]; in vivo): 容易被氧化成极性和水溶性较大的化合物而排出体外 | mechanism of positive inotropic effect [4]: 通过作用于心肌细胞内的SERCA2a靶点而发挥正性肌力作用 | arrhythmia side effect [5]: 没有心律失常副作用 | positive inotropic effect [5]: 明显的正性肌力作用

COCc1nc(C)c(COC)nc1C [2,5-二甲氧甲基-3,6-二甲基吡嗪]
arrhythmia [1]: 会导致心律失常
